Here are results for 14 molecules from the supplement of paper PMC10627819.

Experiment in all cases: Bliss interaction score (quartile over a dose matrix) (fitness difference); higher = more antagonism (negative = synergy)
Assay [1] concerns S. pneumoniae D39V. A digest of the protocol:
(§1)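 The Bliss score was calculated by subtracting the expected fitness, the product of single-drug values, from the observed fitness. OD595 at entry into stationary phase, over the plate's robust no-drug mean and capped at 1, served as the fitness readout. Single-drug values were inferred from combination data, and scores are summarised by quartiles across technical, biological and donor/recipient replicates.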

Assay [2] relates to B. subtilis 168. Put shortly: as §1
The subject of assay [3] is S. aureus Newman. A digest of the protocol: as §1
The subject of assay [4] is S. aureus DSM 20231. A digest of the protocol: as §1
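Also: first quartile when negative (synergy) and third quartile when positive (antagonism).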

On to `CO[C@@]12[C@H](COC(N)=O)C3=C(C(=O)C(C)=C(N)C3=O)N1C[C@@H]1N[C@@H]12` [MitomycinC] + Cc1cc(NS(=O)(=O)c2ccc(N)cc2)no1 [Sulfamethoxazol], for which the Bliss interaction score was -0.0583 in assay [1], 0.082 in assay [2], 0.0863 in assay [3] and 0.036 in assay [4].
Consider `CO[C@@]12[C@H](COC(N)=O)C3=C(C(=O)C(C)=C(N)C3=O)N1C[C@@H]1N[C@@H]12` [MitomycinC] + Cc1onc(-c2ccccc2)c1C(=O)N[C@@H]1C(=O)N2[C@@H]1SC(C)(C)[C@@H]2C(=O)O [Oxacillin], for which the Bliss interaction score in assay [1] is 0.0896; in assay [2], -0.0799; in assay [3], 0.046; in assay [4] it was 0.0499.
Taken in the same sequence, the figures for `CO[C@@]12[C@H](COC(N)=O)C3=C(C(=O)C(C)=C(N)C3=O)N1C[C@@H]1N[C@@H]12` [MitomycinC] + Cn1nnc(-c2ccc(-c3ccc(N4C[C@H](CO)OC4=O)cc3F)cn2)n1 [Tedizolid] were -0.124, 0.0705, -0.0886 and -0.0817.
Taken in the same sequence, the figures for `CO[C@@]12[C@H](COC(N)=O)C3=C(C(=O)C(C)=C(N)C3=O)N1C[C@@H]1N[C@@H]12` [MitomycinC] + O=C1CN(/N=C/c2ccc([N+](=O)[O-])o2)C(=O)N1 [Nitrofurantoin] were -0.145, -0.0788, -0.0345 and -0.0298.
The like results for `CO[C@@]12[C@H](COC(N)=O)C3=C(C(=O)C(C)=C(N)C3=O)N1C[C@@H]1N[C@@H]12` [MitomycinC] + Oc1cc(Cl)ccc1Oc1ccc(Cl)cc1Cl [Triclosan] were, in that order, 0.0578, -0.0544, -0.0343 and -0.025.
Turning to `CO[C@@H]1[C@@H](OC(N)=O)[C@@H](O)[C@H](Oc2ccc3c(O)c(NC(=O)c4ccc(O)c(CC=C(C)C)c4)c(=O)oc3c2C)OC1(C)C` [Novobiocin] + C/C(=C\C(=O)OCCCCCCCCC(=O)O)C[C@@H]1OC[C@H](C[C@@H]2O[C@H]2[C@@H](C)[C@H](C)O)[C@@H](O)[C@H]1O [Pseudomonic acid], the Bliss interaction score is 0.241 in assay [1], -0.0516 in assay [2], -0.0166 in assay [3] and -0.0173 in assay [4].
As for `CO[C@@H]1[C@@H](OC(N)=O)[C@@H](O)[C@H](Oc2ccc3c(O)c(NC(=O)c4ccc(O)c(CC=C(C)C)c4)c(=O)oc3c2C)OC1(C)C` [Novobiocin] + CC1(C)S[C@@H]2[C@H](NC(=O)Cc3ccccc3)C(=O)N2[C@H]1C(=O)O [PenicillinG], the Bliss interaction score is -0.0976 in assay [1], 0.0716 in assay [2], -0.0408 in assay [3] and -0.0356 in assay [4].
For `CO[C@@H]1[C@@H](OC(N)=O)[C@@H](O)[C@H](Oc2ccc3c(O)c(NC(=O)c4ccc(O)c(CC=C(C)C)c4)c(=O)oc3c2C)OC1(C)C` [Novobiocin] + CCCCCCCCCC(=O)N[C@@H]1[C@H]([C@@H]([C@H](O[C@H]1OC2=C3C=C4C=C2OC5=C(C=C(C=C5)[C@H]([C@H]6C(=O)N[C@@H](C7=C(C(=CC(=C7)O)OC8[C@H]([C@H]([C@@H]([C@H](O8)CO)O)O)O)C9=C(C=CC(=C9)[C@H](C(=O)N6)NC(=O)[C@@H]4NC(=O)[C@@H]1C2=CC(=CC(=C2)OC2=C(C=CC(=C2)[C@H](C(=O)N[C@H](CC2=CC(=C(O3)C=C2)Cl)C(=O)N1)N)O)O)O)C(=O)O)O[C@H]1[C@@H]([C@H]([C@@H]([C@H](O1)CO)O)O)NC(=O)C)Cl)CO)O)O [Teicoplanin], the Bliss interaction score was 0.0574 in assay [1] (main component drawn), 0.127 in assay [2] (main component drawn), -0.234 in assay [3] (main component drawn) and -0.102 in assay [4] (main component drawn).
Consider `CO[C@@H]1[C@@H](OC(N)=O)[C@@H](O)[C@H](Oc2ccc3c(O)c(NC(=O)c4ccc(O)c(CC=C(C)C)c4)c(=O)oc3c2C)OC1(C)C` [Novobiocin] + CC[C@H]1OC(=O)[C@H](C)C(=O)[C@H](C)[C@@H](O[C@@H]2O[C@H](C)C[C@H](N(C)C)[C@H]2O)[C@](C)(OC)C[C@@H](C)C(=O)[C@H](C)[C@H]2N(CCCCn3cnc(-c4cccnc4)c3)C(=O)O[C@]12C [Telithromycin], for which the Bliss interaction score is 0.0464 in assay [1], 0.0833 in assay [2], -0.0192 in assay [3] and 0.0515 in assay [4].
For `CO[C@@H]1[C@@H](OC(N)=O)[C@@H](O)[C@H](Oc2ccc3c(O)c(NC(=O)c4ccc(O)c(CC=C(C)C)c4)c(=O)oc3c2C)OC1(C)C` [Novobiocin] + CN[C@H](CC(C)C)C(=O)N[C@H]1C(=O)N[C@@H](CC(N)=O)C(=O)N[C@H]2C(=O)N[C@H]3C(=O)N[C@H](C(=O)N[C@H](C(=O)O)c4cc(O)cc(O)c4-c4cc3ccc4O)[C@H](O)c3ccc(c(Cl)c3)Oc3cc2cc(c3O[C@@H]2O[C@H](CO)[C@@H](O)[C@H](O)[C@H]2O[C@H]2C[C@](C)(N)[C@H](O)[C@H](C)O2)Oc2ccc(cc2Cl)[C@H]1O [Vancomycin], the Bliss interaction score in assay [1] is -0.133; in assay [2], 0.071; in assay [3], -0.0447; in assay [4], -0.0386.
Taken in the same sequence, the figures for `CO[C@@H]1[C@@H](OC(N)=O)[C@@H](O)[C@H](Oc2ccc3c(O)c(NC(=O)c4ccc(O)c(CC=C(C)C)c4)c(=O)oc3c2C)OC1(C)C` [Novobiocin] + CN[C@H](CC(C)C)C(=O)N[C@H]1C(=O)N[C@@H](CC(N)=O)C(=O)N[C@H]2C(=O)N[C@H]3C(=O)N[C@H](C(=O)N[C@H](C(=O)O)c4cc(O)cc(O)c4-c4cc3ccc4O)[C@H](O[C@H]3C[C@](C)(N)[C@@H](O)[C@H](C)O3)c3ccc(c(Cl)c3)Oc3cc2cc(c3O[C@@H]2O[C@H](CO)[C@@H](O)[C@H](O)[C@H]2O[C@H]2C[C@](C)(NCc3ccc(-c4ccc(Cl)cc4)cc3)[C@@H](O)[C@H](C)O2)Oc2ccc(cc2Cl)[C@H]1O [Oritavancin] were 0.0403, -0.0421, -0.0768 and -0.0612.
Take `CO[C@@H]1[C@@H](OC(N)=O)[C@@H](O)[C@H](Oc2ccc3c(O)c(NC(=O)c4ccc(O)c(CC=C(C)C)c4)c(=O)oc3c2C)OC1(C)C` [Novobiocin] + CO[C@H]1/C=C/O[C@@]2(C)Oc3c(C)c(O)c4c(O)c(c(/C=N/N5CCN(C)CC5)c(O)c4c3C2=O)NC(=O)/C(C)=C\C=C\[C@H](C)[C@H](O)[C@@H](C)[C@@H](O)[C@@H](C)[C@H](OC(C)=O)[C@@H]1C [Rifampicin]: the Bliss interaction score came to 0.159 in assay [1], 0.0681 in assay [2], 0.0819 in assay [3] and 0.0573 in assay [4].
`CO[C@@H]1[C@@H](OC(N)=O)[C@@H](O)[C@H](Oc2ccc3c(O)c(NC(=O)c4ccc(O)c(CC=C(C)C)c4)c(=O)oc3c2C)OC1(C)C` [Novobiocin] + Cn1nnc(-c2ccc(-c3ccc(N4C[C@H](CO)OC4=O)cc3F)cn2)n1 [Tedizolid]: the Bliss interaction score is -0.131 in assay [1], 0.0533 in assay [2], -0.0571 in assay [3] and -0.0789 in assay [4].
Taken in the same sequence, the figures for `CO[C@@H]1[C@@H](OC(N)=O)[C@@H](O)[C@H](Oc2ccc3c(O)c(NC(=O)c4ccc(O)c(CC=C(C)C)c4)c(=O)oc3c2C)OC1(C)C` [Novobiocin] + Oc1cc(Cl)ccc1Oc1ccc(Cl)cc1Cl [Triclosan] were 0.177, 0.0532, -0.0304 and 0.0686.
